From patent publication US7018990B2, “Combination of a factor Xa inhibitor and clopidogrel” (Bristol-Myers Squibb Company, priority 2002, dated 2006)

Assays:
rabbits [1] = assay: Electrically induced carotid artery thrombosis in anesthetized rabbits (clot inhibition, carotid blood flow); format: in vivo
Protocol: Rabbits were anesthetized with ketamine (50 mg/kg i.m.) and xylazine (10 mg/kg i.m.) and then surgically prepared with arterial and venous catheters. An electromagnetic flow probe was placed on a segment of an isolated carotid artery to monitor blood flow. Thrombus formation was induced by electrical stimulation of the carotid artery for 3 min at 4 mA using an external stainless-steel bipolar electrode. Carotid blood flow was measured continuously over a 45-min period to monitor thrombus occlusion. Compound A was infused intravenously whereas clopidogrel was infused into the portal vein. Both agents were infused 1 hour prior to the electrical stimulation of the carotid artery and continuously during the 45-min period.
(§1) The same experimental protocol as described in Example 1 was used in this study. Aspirin was infused intravenously whereas clopidogrel was infused into the portal vein. Both agents were infused 1 hour prior to the electrical stimulation of the carotid artery and the cuticle transection, and continuously to the end of the experiment.
The same experimental protocol as described in Example 1 was used in this study. Aspirin and Compound A were infused intravenously.

rabbits [2] = assay: Cuticle bleeding time in anesthetized rabbits; settings: clopidogrel 1 mg/kg/hr infused into the portal vein, compared to the vehicle-group
Protocol: The bleeding time effects of Compound A, clopidogrel, and their combination were examined in anesthetized rabbits. Rabbits were anesthetized as described above and their hind paws were shaved. A standard cut was made at the apex of the cuticle with a razor blade. Blood was allowed to flow freely by keeping the bleeding site in contact with 37° C. warm lactated Ringer's solution. Bleeding time was defined as the time after transection when bleeding was ceased. It was measured by averaging the bleeding time of three nail cuticles in the control and treatment period. Percentage change in cuticle bleeding time is calculated by comparing the bleeding time taken in the treatment period to the control bleeding time. Compounds were infused as described above.
as §1

[3] = Compound A 0.1 mg/kg/hr infused intravenously
[4] = aspirin 0.3 mg/kg/hr infused intravenously
[5] = clopidogrel 1 mg/kg/hr infused into the portal vein

For `CN(C)Cc1nccn1-c1ccc(NC(=O)c2cc(C(F)(F)F)nn2-c2ccc3onc(N)c3c2)c(F)c1.Cl` [Compound A, 1-(3′-aminobenzisoxazol-5′-yl)-3-trifluoromethyl-5-[[4-[(2′-dimethylaminomethyl)imidazol-1′-yl]-2fluorophenyl]aminocarbonyl]pyrazole-hydrochloric acid salt], the carotid blood flow (rabbits [1]; [3]) was “increase in carotid blood flow” and the “inhibition of clot formation” value (rabbits [1]; [3]) was “moderate inhibition of clot formation”.

In the case of `CC(=O)Oc1ccccc1C(=O)O` [aspirin, acetylsalicyclic acid], the carotid blood flow (rabbits [1]; [4]) is reported as “not effective” and the “inhibition of clot formation” value (rabbits [1]; [4]) is reported as “not effective in inhibiting the formation of clot”.

With `COC(=O)[C@H](c1ccccc1Cl)N1CCc2sccc2C1` [clopidogrel, Clopidogrel] the carotid blood flow (rabbits [1]; [5]) was “increase in carotid blood flow”, the “inhibition of clot formation” value (rabbits [1]; [5]) was “moderate inhibition of clot formation” and the bleeding time (rabbits [2]) was “increased the bleeding time significantly”.
